Columns and labels:
HDAC8 = molecular target: T1, HDAC8 (Homo sapiens, UniProt Q9BY41); experiment: Caliper assay, biochemical HDAC IC50; details: relative to PCI-34051
T1 construct: purchased BPS Bioscience
T1 sequence (Q9BY41 1-377): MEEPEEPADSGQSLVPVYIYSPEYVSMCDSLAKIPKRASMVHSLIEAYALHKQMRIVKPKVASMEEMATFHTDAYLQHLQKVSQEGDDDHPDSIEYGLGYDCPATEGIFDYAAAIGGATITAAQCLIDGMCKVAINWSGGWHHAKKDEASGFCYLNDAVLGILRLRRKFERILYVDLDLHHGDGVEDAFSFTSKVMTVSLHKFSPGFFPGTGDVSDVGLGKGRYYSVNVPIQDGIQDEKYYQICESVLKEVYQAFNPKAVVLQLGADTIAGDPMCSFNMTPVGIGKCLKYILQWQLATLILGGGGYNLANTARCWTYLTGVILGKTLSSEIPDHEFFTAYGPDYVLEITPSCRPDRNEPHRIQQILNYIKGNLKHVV
Protocol: The biochemical determination of HDAC ICsos for compounds was performed as described previously (Zhang, Y.-L. et al., Fluorescent substrates for determining lysine modifying enzyme activity, 2013, Patent Application WO 2013067391). All HDACs were purchased from BPS Bioscience. The substrates Broad Substrate A and Broad Substrate B were synthesized in house, but can be purchased from PerkinElmer (Product number CLS960006 and CLS960007, respectively). All other reagents were purchased from Sigma. Caliper EZ reader II system was used to collect all data. Compounds were tested in duplicate in a 12-point dose curve with 3-fold serial dilution starting from 33.33 μM. Purified HDACs were incubated with 2 μM carboxyfluorescein (FAM)-labeled acetylated or trifluoroacetylated peptide substrate (Broad Substrate A and B, respectively) and test compound for 60 min at room temperature, in an HDAC assay buffer that contained 50 mM HEPES (pH 7.4), 100 mM KCl, 0.01% BSA and 0.001% Tween-20. […] Substrate and product were separated electrophoretically and fluorescence intensity in the substrate and product peaks was determined and analyzed by Labchip EZ Reader. […] Inhibition of HDAC10 and 11 was not measured due to either low purity of the available recombinant HDAC enzyme preparations and/or lack of activity of the enzymes and low substrate conversion.

MCF7 cells [1] = experiment: L1000 gene expression profiling; type: cell-based, human; details: for number of dose-responsive genes with altered expression: approximately 1,000 landmark genes
Protocol: Cells were incubated for 24 hours at 37° C. in a humidified incubator containing 5% CO2 before treatment.
These 1,000× stock solutions were first diluted (100-fold) in culture medium, and then the diluted compounds were transferred to the cell culture plates using CyBi-well vario 384-well tips (another 10-fold dilution). Ultimately, all compounds were diluted 1,000-fold to their desired serial concentrations with a final DMSO concentration of 0.1%. Treated cells were incubated for 24 hours prior to lysis. […] Cell lysate plates were sealed using a plate sealer, kept at room temperature for 30 minutes, and then frozen at −80° C. until L1000 gene expression profiling was performed.
In this study, we utilize L1000, a high-throughput, bead-based gene expression assay in which mRNA is extracted from cultured human cells treated with various chemical or genomic perturbagens (small molecules, gene knockdowns, or gene over-expression constructs) as previously described.^38 This mRNA is reverse-transcribed into first-strand cDNA. Gene specific probes containing barcodes and universal primer sites are annealed to the first strand cDNA. The probes are ligated to form a template for PCR. The template is PCR amplified with biotinylated-universal primers. The end products are biotinylated, fixed length, barcoded amplicons. The amplicons can then be mixed with Luminex beads that contain complementary barcodes to those encoded in each of the 1000 amplified landmark genes. These 1000 landmark genes were chosen as a reduced representation of the transcriptome and account for the majority of expression variation across many cellular contexts (Subramanian, et al., manuscript in preparation). These beads are then stained with fluorescent streptavidin-phycoerythrin (SAPE) and detected in 384-well plate format on a Luminex FlexMap flow cytometry-based scanner. The resulting readout is a measure of mean fluorescent intensity (MFI) for each landmark gene.

[2] = tested on: p21 (CDKN1A) overexpression; experiment: Connectivity map query analysis of L1000 signatures across cell lines; type: cell-based, human; details: across multiple cell lines, relative to 430 overexpressed genes
Excerpt: To assess whether our findings extend beyond the context of a single cell type and to incorporate into our analysis orthogonal biological perturbations, we expanded our gene expression studies using L1000 into several cell lines representative of distinct tissue types: PC3 (prostate), HEPG2 (liver), HCC515 (lung), HAlE (kidney), A375 (skin), A549 (lung), HT29 (colon). […] These candidate substrates of HDAC8 may provide a more targeted approach toward specific cancers (or other diseases) driven by the dysregulation of proteins and/or genes within this HDAC8 network. […] Efforts toward defining the functional consequences of the change in acetylation of these proteins by HDAC8 are ongoing.
The raw expression data are log 2-scaled, quantile normalized, and z-scored, such that a differential expression value is achieved for each gene in each well. In the standard L1000 protocol, each well corresponds to a different perturbagen and these differential expression values are collapsed across replicate wells to yield a differential expression signature for each perturbagen. […] To assess this, we did a meta-analysis of the CMap query results (i.e., lists of perturbations ordered by similarity to an input gene expression signature). […] We performed the same analysis with BRD3811 as well. […]

MCF7 cells [3] = experiment: SILAC-based global acetylation profiling; type: cell-based; details: compared to DMSO or BRD3811
Excerpt: Using these chemical tools, we compared the changes in global acetylation in a representative cell line known to express HDAC8 (i.e. MCF7) after treatment with each compound using Stable Isotope Labeling of Amino Acids in Cell Culture (SILAC)-based quantitative mass spectrometry (MS). (Ververis, K., Karagiannis, T. C. (2012) An atlas of histone deacetylase expression in breast cancer: fluorescence methodology for comparative semi-quantitative analysis. Am. J. Transl. Res. 4, 24-43). […] Global acetylation profiling was completed by digesting cellular proteins with trypsin and enriching the acetylated peptides by immunoprecipitation using an antibody specific for acetylated lysine residues.
MCF7 cells were grown and expanded from the same frozen vial stock, followed by differentially labeling with non-radioactive stable isotopic amino acids by growing in light, medium, and heavy SILAC media (see below for recipe), respectively (Ong, S. E., et al. Mol. Cell Proteomics 5, 376-386 (2002)). […]
EDTA, 2 μg/ml aprotinin (Sigma-Aldrich), 10 μg/ml leupeptin (Roche Applied Science), 1 mM phenylmethylsulfonyl fluoride (PMSF), and 5 mM sodium butyrate (Sigma-Aldrich). […] Protein concentrations were measured using a bicinchoninic acid (BCA) protein assay. […]

p21 = experiment: Western blotting of p21 protein; type: cell-based; details: MCF7 cells, 10 μM, 48 h
Protocol: MCF7 cells were treated with compounds for 48 h, at which time, lysates were collected using RIPA buffer with added protease (Roche) and phosphatase (Roche) inhibitors. Electrophoresis was performed using NuPage 4-12% Bis-Tris gels (Invitrogen). Proteins were transferred to a nitrocellulose membrane and probed using antibodies for p21 (Cell Signaling) and GAPDH (Cell Signalling). Chemiluminescence was induced by subsequent incubation with HRP-linked secondary antibodies (GE Healthcare UK Ltd.) and treatment of the membrane with the appropriate ECL solutions (Thermo Scientific). Visualization was accomplished using a ChemiDoc MP System (Bio-Rad), and the raw data files were converted to jpegs using ImageJ (NIH).

MCF-7 cells = experiment: Global histone modification profiling; type: cell-based; details: 10 μM for 24 h
Protocol: Each row represents a unique combination of histone modifications (as denoted by “Histone Mark”) and each column represents a treatment of MCF-7 cells with the compound indicated at 10 μM for 24 h. Each compound treatment was performed in biological duplicate (R1 and R2). Each cell is colored by the log2-fold change over the average of the DMSO replicates as denoted in the scale bar. Global histone profiles were obtained in a manner essentially equivalent to a previous report. (Kim, J. H., Yu, S., Chen, J. D., Kong, A. N. (2013) The nuclear cofactor RAC3/AIB1/SRC-3 enhances Nrf2 signaling by interacting with transactivation domains. Oncogene 32, 514-527).

SMILES	reduction in potency for inhibition of HDAC8 (HDAC8)	fold_change_at_10_uM CDKN1A (202284_s_at) (MCF7 cells [1]; MCF7, 10 uM, 24 h)	fold_change_at_10_uM CSNK1A1 (206562_s_at) (MCF7 cells [1]; MCF7, 10 uM, 24 h)	fold_change_at_10_uM DUSP3 (201536_at) (MCF7 cells [1]; MCF7, 10 uM, 24 h)	fold_change_at_10_uM ERBB2 (216836_s_at) (MCF7 cells [1]; MCF7, 10 uM, 24 h)	fold_change_at_10_uM GHR (205498_at) (MCF7 cells [1]; MCF7, 10 uM, 24 h)	fold_change_at_10_uM HMGA2 (208025_s_at) (MCF7 cells [1]; MCF7, 10 uM, 24 h)	fold_change_at_10_uM HMOX1 (203665_at) (MCF7 cells [1]; MCF7, 10 uM, 24 h)	fold_change_at_10_uM PRSS23 (202458_at) (MCF7 cells [1]; MCF7, 10 uM, 24 h)	fold_change_at_10_uM SLC25A46 (212833_at) (MCF7 cells [1]; MCF7, 10 uM, 24 h)	fold_change_at_10_uM TXNRD1 (201266_at) (MCF7 cells [1]; MCF7, 10 uM, 24 h)	fold_change_at_10_uM VAT1 (208626_s_at) (MCF7 cells [1]; MCF7, 10 uM, 24 h)	level of the p21 transcript (MCF7 cells [1]; dose range 0.04 μM-10 μM, 24 h)	number of dose-responsive genes with altered expression (MCF7 cells [1]; dose range 0.04 M-10 M) [genes]	average percentile rank of similarity to p21 (CDKN1A) overexpression signature [2] [percentile]	changes in histone acetylation status (MCF7 cells [3])	number of dose-responsive genes with altered expression (MCF7 cells [1]; dose range 0.04 μM-10 μM) [genes]	p21 protein levels (western blot) (p21)	histone acetylation (MCF-7 cells)
COc1ccc(Cn2ccc3cc(C)c(C(=O)NO)cc32)cc1 [BRD3811]	1,000 fold	1.956	1.623	1.586	1.614	0.7287	0.6073	2.067	0.6507	0.5635	1.298	1.389	increased the level of p21 transcript only at the highest dose tested	11	66	–	–	–	–
COc1ccc(Cn2ccc3ccc(C(=O)NO)cc32)cc1 [PCI-34051, reference compound]	–	–	–	–	–	–	–	–	–	–	–	–	dose-dependent increase	–	96	did not observe any significant changes	70	increased p21	not altered
